Results published in patent US20150305333A1, “USE OF GLUCOSAMINE AMIDES AS PLANT GROWTH AND YIELD ENHANCERS” (PIONEER HI-BRED INTERNATIONAL, INC., priority 2012, published 2015).

Experiments:
Superior potatoes = test: Potato field trial 2011: emergence, flowering, vigor, biomass; format: in vivo; settings: for Crop Vigor (1-5 Scale): 3=same as untreated check, 5=visually superior; for Plant Biomass: 117 DAP, above ground
Procedure: Seed treatments included an Untreated Control, NPG applied as a seed treatment, and NPG applied as a seed treatment followed by two foliar applications. Aqueous solutions of NPG were applied at a 10^−7 M concentration to seed pieces using a spray nozzle and left to soak on a plastic sheet for 20 min.
Foliar NPG applications were performed 36 and 45 days after planting. Plants were sprayed using a four-nozzle hollow-cone boom containing ceramic disks and CO2 propellant at a speed of 4.5 km/h and 40 psi. The 36 day application utilized a 2.0 L mix size and spray rate of 200 L/ha water volume. The 45 day application utilized a 3.0 L mix size and spray rate of 300 L/ha water volume. Seeds pieces designated for use as the Untreated Control also received the fungicide maintenance treatment.
The seed pieces were beginning to sprout when planted on June 8th in a loam composed of 34% sand, 48% silt and 18% clay and 2.9% organic matter.
Potatoes were planted at a rate of 25,000 seed pieces/ha to a depth of 20 cm and hilled using a tractor mounted potato hiller. Weeds were controlled using 3 L/ha of 40.6 wt % linuron. Insects were controlled using 250 ml/ha 18.4 wt % chlorantraniliprole and 80 g/ha 70 wt % acetamiprid insecticides. Disease was controlled using a tank mix of 1.6 kg/ha 75 wt % mancozeb M and 225 g/ha 60 wt % cymoxanil fungicides. Before harvest, plants were sprayed twice (seven days apart) with 39.5 wt % diquat dibromide herbicide at a rate of 2 L/ha. All of the products are industry standards and representative of what is used in commercial production.
The trial was conducted using a randomized complete block design with a plot size of 2 m by 8 m with a 100 cm row spacing, 30 cm plant spacing and four replications. Due to wet weather, the soil was damp and cloddy during the planting and hilling process.
Treatments were compared on a “Vigor Scale” of 1 to 5 as follows:
Potato Plant Biomass was determined at 117 DAP by harvesting five plants above ground level from each plot (Table 7).

[1] = tested on: Spring barley (Hordeum vulgare); test: Spring barley field trial 2010: emergence, height, yield; format: in vivo; settings: for Barley Yield: entire plot harvested
Procedure: A field trial was conducted to evaluate the effects of NPG on plant emergence, height, and yield in Spring barley (Hordeum vulgare) planted near Thorndale, Ontario, Canada, in 2010. Seed treatments included an Untreated Control, three concentrations of NPG, and three concentrations of a natural LCO. The natural LCO was provided by Dr. Don Smith (McGill University, Montreal, Canada) and prepared as described in Example 2. Aqueous solutions of NPG and LCO were applied at 10^−6 M, 10^−7 M and 10^−8M to barley seed using a spray nozzle and left to soak on a plastic sheet for 20 minutes. The seeds were beginning to emerge when they were planted on June 8th in a loam composed of 41% sand, 39% silt and 20% clay and 4.5% organic matter.
Barley was planted at a rate of 100 kg seed/ha to a depth of 2.5 cm. Weeds were controlled using 770 mL/ha 8.79 wt % fenoxprop-P-ethyl, and a mixture of 33.33 wt % thifensulfuron methyl and 16.67 wt % tribenuron methyl at a rate of 30 g/ha. Disease was controlled with 23.6 wt % pyraclostrobin at a rate of 0.4 L/ha. All of the products are industry standards and representative of what is used in commercial production.
The trial was conducted using a randomized complete block design with a plot size of 2 m by 8 m with a 17.8 cm row spacing, 3.3 cm plant spacing and four replications
Yield was determined by harvesting the entire plot and transforming the data to kg/ha (Table 10). Yields are not corrected for differences in emergence rates. […] It is noteworthy, however, that yield benefits may be difficult to accurately determine with the small plots used in this study.

[2] = 10^−7M seed treatment + Foliar, 20 DAP
[3] = 10^−7M seed treatment + Foliar, 28 DAP
[4] = 10^−7M seed treatment + Foliar, 40 DAP

Structure (SMILES): CCCCCCC=CCCCCCCCC(=O)NC1C(OC)OC(CO)C(O)C1O [NPG, Methyl 2-deoxy-2-N-(hexadece-9,10-cis-eneoyl)-β-D-glucopyranoside]
- Potato Emergence (Superior potatoes; [2]): 36a %
- Crop Vigor (1-5 Scale) (Superior potatoes; [2]): 4.6b
- Potato Emergence (Superior potatoes; [3]): 38a %
- Crop Vigor (1-5 Scale) (Superior potatoes; [3]): 3.9a
- Potato Flowering (Superior potatoes; [4]): 22b %
- Crop Vigor (1-5 Scale) (Superior potatoes; [4]): 3.6a
- Crop Vigor (1-5 Scale) (Superior potatoes; 10^−7M seed treatment + Foliar, 49 DAP): 4.1c
- Plant Biomass (Superior potatoes; 10^−7M seed treatment + Foliar): 2.56a kg/5 Plants
- Potato Emergence (Superior potatoes; 10^−7M seed treatment, 20 DAP): 30a %
- Crop Vigor (1-5 Scale) (Superior potatoes; 10^−7M seed treatment, 20 DAP): 2.9a
- Potato Emergence (Superior potatoes; 10^−7M seed treatment, 28 DAP): 39a %
- Crop Vigor (1-5 Scale) (Superior potatoes; 10^−7M seed treatment, 28 DAP): 2.9a
- Potato Flowering (Superior potatoes; 10^−7M seed treatment, 40 DAP): 0.0a %
- Crop Vigor (1-5 Scale) (Superior potatoes; 10^−7M seed treatment, 40 DAP): 3.1a
- Crop Vigor (1-5 Scale) (Superior potatoes; 10^−7M seed treatment, 49 DAP): 3.5b
- Plant Biomass (Superior potatoes; 10^−7M seed treatment): 2.35a kg/5 Plants
- Barley Emergence ([1]; 10^−6M seed treatment, 7 DAP): 85a %
- Barley Plant Height ([1]; 10^−6M seed treatment, 7 DAP): 5.8a cm
- Barley Emergence ([1]; 10^−6M seed treatment, 15 DAP): 88ab %
- Barley Plant Height ([1]; 10^−6M seed treatment, 15 DAP): 12ab cm
- Barley Emergence ([1]; 10^−6M seed treatment, 43 DAP): 19a %
- Barley Plant Height ([1]; 10^−6M seed treatment, 43 DAP): 71a cm
- Barley Yield ([1]; 10^−6M seed treatment): 3184 Kg/Hectare
- Barley Emergence ([1]; 10^−7M seed treatment, 7 DAP): 86a %
- Barley Plant Height ([1]; 10^−7M seed treatment, 7 DAP): 5.5ab cm
- Barley Emergence ([1]; 10^−7M seed treatment, 15 DAP): 91a %
- Barley Plant Height ([1]; 10^−7M seed treatment, 15 DAP): 14a cm
- Barley Emergence ([1]; 10^−7M seed treatment, 43 DAP): 30a %
- Barley Plant Height ([1]; 10^−7M seed treatment, 43 DAP): 71a cm
- Barley Yield ([1]; 10^−7M seed treatment): 2504 Kg/Hectare
- Barley Emergence ([1]; 10^−8M seed treatment, 7 DAP): 83a %
- Barley Plant Height ([1]; 10^−8M seed treatment, 7 DAP): 5.6a cm
- Barley Emergence ([1]; 10^−8M seed treatment, 15 DAP): 86ab %
- Barley Plant Height ([1]; 10^−8M seed treatment, 15 DAP): 13a cm
- Barley Emergence ([1]; 10^−8M seed treatment, 43 DAP): 25a %
- Barley Plant Height ([1]; 10^−8M seed treatment, 43 DAP): 72a cm
- Barley Yield ([1]; 10^−8M seed treatment): 3043 Kg/Hectare
